Reference: patent publication US20040220164A1, “Triaza compound immunoregulatory agents” (priority 2001, published 2004)
Converted amounts (≈) assume the structure as drawn. Like-named read-outs stand apart in the source and are kept apart here.

Key:
HIV-1 strain NL4.3 = test: Anti-HIV-1 assay in MT-4 cells (p24 Ag ELISA, Example 3); format: cell-based
Method: Antiviral Assays. For HIV-1, MT-4 cells were infected with the HIV-1 strain NL4.3. Briefly, five-fold dilutions of the compounds (in 100 μl) were added to 96-well flat bottom plates (Iwaki, Japan). Then, to each well, 7.5×10^4 MT-4 cells were added in 50 μl medium, followed by 50 μl of diluted HIV-1 stock (strain NL4.3). Cytopathic effect (CPE) induced by the virus was checked regularly microscopically. When strong CPE was observed (after 3 to 5 days of incubation) in untreated HIV-1 infected cells, the supernatant was collected, stored at −20° C. and analyzed for HIV-1 core antigen by p24 Ag ELISA (NEN™, PerkinElmer Life Sciences, Boston, Mass.). Finally, the IC50 value of the compounds (i.e., the concentration of the compound required for 50% reduction of HIV infection as measured by viral p24 antigen level in the supernatant of infected MT-4 cells) was calculated.

HHV-7 (KHR strain) = test: Anti-HHV-7 assay in SupT1 cells (antigen expression, flow cytometry, Example 3); format: cell-based
Method: For HHV-7, five-fold dilutions of the compounds were added in 500 μl culture medium in 24-well flat bottom plates (Iwaki, Japan), whereupon 2×10^5 SupT1 cells were added in 400 μl culture medium. After 30 min incubation at room temperature, 100 μl of HHV-7 stock was added to each well. HHV-7-infected and mock-infected SupT1 cells were cultured in a final volume of 1 ml medium in the absence of the compounds. On day 4, half of the medium and the cells were replaced and fresh medium without new compound was added. This procedure was repeated every 2 or 3 days. The CPE was checked regularly microscopically. When CPE was observed, the HHV-7 antigen expression was monitored by flow cytometry, as described previously (Zhang, Y. et al. (1999) “Selective activity of various antiviral compounds against HHV-7 infection Antiviral Res. 43, 23-35.)

[1] = Cytotoxicity assay (trypan blue exclusion, propidium iodide); format: cell-based, human; conditions: human, read-out: CC50 (50% cytotoxic concentration)
Method: Cytotoxicity Assay. Cellular toxicity of the compounds was measured by trypan blue exclusion and also by Propidium Iodide by flow cytometry after 3 or 4 days of incubation, in parallel with the CD4 antigen expression. The CC50 value of each CADA analog is the concentration (in μg/ml) required to reduce the viability of the cells by 50%.

CD4 [2] = target: T1, CD4 (Homo sapiens, UniProt P01730); test: Cell surface CD4 expression by flow cytometry (anti-CD4 mAb Leu3a-PE); format: cell-based; parameters: To study the effect of the CADA derivatives on surface CD4 antigen expression, MT-4 and SupT1 cells were incubated; endogenous in cells; host or cells: MT-4, SupT1, PBMC
Method: FIGS. 2A-2C. Surface CD4 expression in MT-4 cell line, SupT1 cell line and PBMCs after incubation with CADA hydrochloride (3.2 or 16 μM) for 1 and 4 days. (A) Cell surface CD4 expression of control MT-4 cells and MT-4 cells treated with CADA (3.2 μM) for 1 day or 4 days. (B) Cell surface CD4 expression of control SupT1 cells and SupT1 cells treated with CADA (3.2 μM) for 1 day or 4 days. (C) Cell surface CD4 expression of control PBMCs and PBMCs treated with CADA (16 μM) for 1 day or 4 days. The cells were stained with anti-CD4 mAb (Leu3a-PE). Percentages of fluorescent cells and MFI (mean fluorescence intensity) are indicated in each histogram.
FIG. 4. Comparison of the effects on CD4 modulation by ATA (24 μM), CADA hydrochloride (16 μM) and PMA (8 nM) in SupT1 cells after incubation with the compounds analyzed after 20 minutes, 4 hours, 1 day and 4 days.
Cells were incubated with CADA hydrochloride and the CD4 expression on the cell surface was analyzed. […] In peripheral blood mononuclear cells (PBMCs), the percentage of CD4 expression decreased to 0.2% after incubation with CADA (16 μM) for 4 days (FIG. 2).
Expression of various other surface antigens was also examined in MT-4 cells, SupT1 cells and PBMCs after incubation with CADA (16 μM) or CADA-free medium at 37° C. for 4 days. After washing with phosphate-buffered saline (PBS) containing 2% FCS(fetal calf serum), the cells were incubated with mAb (as indicated in Table 1) for 20 min at 4° C. Then the cells were washed, fixed with 1% formaldehyde and analyzed by flow cytometry. All mAbs were purchased from Becton-Dickinson (Erembodegem, Belgium).
CADA was compared with ATA and PMA with regard to their down-modulating effects. […] At day 4, the CD4 expression in SupT1 cells treated with CADA reduced to 1.2%.

CD4 [3] = target: T1, CD4; test: CD4 down-modulation, flow cytometry with FITC-conjugated anti-CD4 (SK3) mAb, MT-4 cells; format: cell-based; parameters: To study the effect of the CADA derivatives on surface CD4 antigen expression, MT-4 and SupT1 cells were incubated; endogenous in cells; host or cells: MT-4, SupT1, PBMC; conditions: for IC50: MT-4 cells, day 3, read-out: IC50 CD4 (50% inhibition of extracellular CD4 expression) (converted); for CD4 down-modulating activity compared with CADA or parent analog (in words): structure-activity discussion of Table 5 (MT-4 and SupT1 cells); for CD4 down-modulating activity, fold less active than CADA: compared to CADA, MT-4 cells (stated for some compounds)
Method: Flow Cytometric Analyses. To study the effect of the CADA derivatives on surface CD4 antigen expression, MT-4 and SupT1 cells were incubated with a serial 5-fold dilution of the compounds (50, 10, 2, 0.4 and 0.08 μg/ml) or medium at 37° C. […] Briefly, after washing with phosphate-buffered saline (PBS) containing 2% fetal calf serum (FCS), cells were incubated with FITC-conjugated anti-CD4 (SK3) mAb for 30 min at 4° C. As a negative control for a specific background staining, cells were stained in parallel with Simultest Control γ1/γ^2a (Becton Dickinson). Then the cells were washed, fixed with 1% formaldehyde and analyzed by flow cytometry in a FACScalibur (Becton Dickinson, San Jose, Calif., USA). Data were acquired and analyzed with CellQuest software (Becton Dickinson). For the calculation of the CD4 receptor expression, the mean fluorescence intensity (MFI) of each sample was expressed as percentage of the MFI of control cells (after subtracting the MFI of the isotype control). Finally, the IC50 value of the compounds (i.e., the concentration of the compound required for 50% inhibition of extracellular CD4 expression) was calculated.

CD4 [4] = target: T1, CD4; test: CD4 down-modulation, flow cytometry with FITC-conjugated anti-CD4 (SK3) mAb, SupT1 cells; format: cell-based; parameters: To study the effect of the CADA derivatives on surface CD4 antigen expression, MT-4 and SupT1 cells were incubated; endogenous in cells; host or cells: MT-4, SupT1, PBMC; conditions: for IC50: day 4, read-out: IC50 CD4 (50% inhibition of extracellular CD4 expression) (converted)
Method: Flow Cytometric Analyses. To study the effect of the CADA derivatives on surface CD4 antigen expression, MT-4 and SupT1 cells were incubated with a serial 5-fold dilution of the compounds (50, 10, 2, 0.4 and 0.08 μg/ml) or medium at 37° C. Cell surface CD4 antigen expression was analyzed at day 3 (MT-4) or day 4 (SupT1). Briefly, after washing with phosphate-buffered saline (PBS) containing 2% fetal calf serum (FCS), cells were incubated with FITC-conjugated anti-CD4 (SK3) mAb for 30 min at 4° C. As a negative control for a specific background staining, cells were stained in parallel with Simultest Control γ1/γ^2a (Becton Dickinson). Then the cells were washed, fixed with 1% formaldehyde and analyzed by flow cytometry in a FACScalibur (Becton Dickinson, San Jose, Calif., USA). Data were acquired and analyzed with CellQuest software (Becton Dickinson). For the calculation of the CD4 receptor expression, the mean fluorescence intensity (MFI) of each sample was expressed as percentage of the MFI of control cells (after subtracting the MFI of the isotype control). Finally, the IC50 value of the compounds (i.e., the concentration of the compound required for 50% inhibition of extracellular CD4 expression) was calculated.

[5] = Human immunodeficiency virus 1, MT4, MT-4 cells, read-out: IC50 HIV-1 (NL4.3), p24 Ag ELISA
[6] = SUP-T1, SupT1 cells, read-out: IC50 HHV-7 (50% reduction of HHV-7 antigen expression)

Compound | IC50 (HIV-1 strain NL4.3; [5]) [µg/mL] | IC50 (HHV-7 (KHR strain); [6]) [µg/mL] | down-regulation of CD4 expression (in words) (CD4 [2]) | IC50 (CD4 [3]) [µM] | CD4 down-modulating activity compared with CADA or parent analog (in words) (CD4 [3]) | IC50 (CD4 [4]) [µM] | CD4 down-modulating activity, fold less active than CADA (CD4 [3]) [fold] | CD4 down-regulation (in words) (CD4 [4]) | CC50 ([1]; MT-4 cells) [µg/mL] | CC50 ([1]; SupT1 cells) [µg/mL] | IC50 (HIV-1 strain NL4.3; Human immunodeficiency virus 1, MT4, read-out: IC50 HIV-1 (NL4.3), p24 Ag ELISA) [µg/mL] | IC50 (HHV-7 (KHR strain); SUP-T1, read-out: IC50 HHV-7 (50% reduction of HHV-7 antigen expression)) [µg/mL]
C=C1CN(S(=O)(=O)c2ccc(C)cc2)CCCN(CCC)CCCN(S(=O)(=O)c2ccc(C)cc2)C1 [QJ029] | 2 (≈ 3.75 µM) | 0.91 (≈ 1.7 µM) | down-regulate CD4 expression | 4.83 | somewhat in between | 5.73 |  |  | 20.7 (≈ 38.8 µM) | 22.2 (≈ 41.6 µM) |  | 
C=C1CN(S(=O)(=O)c2ccc(C)cc2)CCCN(Cc2ccc[nH]2)CCCN(S(=O)(=O)c2ccc(C)cc2)C1 [QJ027] |  |  | down-regulate CD4 expression | 6.78 |  | 10.5 | 10 |  | 20.2 (≈ 35.4 µM) | 21.7 (≈ 38 µM) | 4.4 (≈ 7.71 µM) | 3.1 (≈ 5.43 µM)
C=C1CN(S(=O)(=O)c2ccc(C)cc2)CCCN(CC2CC=CCC2)CCCN(S(=O)(=O)c2ccc(C)cc2)C1 (centres unmarked) [QJ023] | 0.29 (≈ 0.495 µM) | 0.1 (≈ 0.171 µM) | down-regulate CD4 expression | 0.444 | slightly enhanced | 0.615 |  |  | 22.2 (≈ 37.9 µM) | 28.9 (≈ 49.3 µM) |  | 
C=C1CN(S(=O)(=O)c2ccc(C)cc2)CCCN(S(=O)(=O)c2ccc(C)cc2)CCCN(S(=O)(=O)c2ccc(C)cc2)C1 [AS112] | > 10 | > 50 |  | > 15.5 | negative effect | > 77.4 |  |  | 27.8 (≈ 43 µM) | > 50 |  | 
Cc1ccc(S(=O)(=O)N2CCCN(Cc3ccccc3)CCCN(S(=O)(=O)c3ccc(C)cc3)CC(CO)C2)cc1 [HJC321] | 3.88 (≈ 6.47 µM) | 1.94 (≈ 3.23 µM) |  | 3.32 |  | 5.28 | 6 |  | 26.1 (≈ 43.5 µM) | > 50 |  | 
Cc1ccc(S(=O)(=O)N2CCCN(Cc3ccccc3)CCCN(S(=O)(=O)c3ccc(C)cc3)CCC2)cc1 [MFS-SC001] | > 10 | 0.65 (≈ 1.14 µM) |  | 12.4 |  | 7.18 | 20 |  | 23.1 (≈ 40.5 µM) | 32.2 (≈ 56.5 µM) |  | 

The next lines start with results.

IC50 (HIV-1 strain NL4.3; [5]) [µg/mL] | IC50 (HHV-7 (KHR strain); [6]) [µg/mL] | down-regulation of CD4 expression (in words) (CD4 [2]) | IC50 (CD4 [3]) [µM] | CD4 down-modulating activity compared with CADA or parent analog (in words) (CD4 [3]) | IC50 (CD4 [4]) [µM] | CD4 down-modulating activity, fold less active than CADA (CD4 [3]) [fold] | CD4 down-regulation (in words) (CD4 [4]) | Compound | CC50 ([1]; MT-4 cells) [µg/mL] | CC50 ([1]; SupT1 cells) [µg/mL] | IC50 (HIV-1 strain NL4.3; Human immunodeficiency virus 1, MT4, read-out: IC50 HIV-1 (NL4.3), p24 Ag ELISA) [µg/mL] | IC50 (HHV-7 (KHR strain); SUP-T1, read-out: IC50 HHV-7 (50% reduction of HHV-7 antigen expression)) [µg/mL]
0.48 (≈ 0.854 µM) | 0.13 (≈ 0.231 µM) | down-regulate CD4 expression | 0.943 |  | 1.23 |  |  | C=C1CN(S(=O)(=O)c2ccc(C)cc2)CCCN(CC(C)CC)CCCN(S(=O)(=O)c2ccc(C)cc2)C1 (centres unmarked) [QJ037] | 22.1 (≈ 39.3 µM) | 24 (≈ 42.7 µM) |  | 
0.31 (≈ 0.552 µM) | 0.34 (≈ 0.605 µM) | down-regulate CD4 expression | 0.73 |  | 0.854 |  |  | C=C1CN(S(=O)(=O)c2ccc(C)cc2)CCCN(CCC(C)C)CCCN(S(=O)(=O)c2ccc(C)cc2)C1 [QJ038] | 19.4 (≈ 34.5 µM) | 8.4 (≈ 15 µM) |  | 
4.23 (≈ 7.56 µM) | 1.55 (≈ 2.77 µM) | down-regulate CD4 expression | 9.54 |  | 14.1 |  |  | C=C1CN(S(=O)(=O)c2ccc(C)cc2)CCCN(C2CCCC2)CCCN(S(=O)(=O)c2ccc(C)cc2)C1 [QJ040] | 17 (≈ 30.4 µM) | 20.5 (≈ 36.6 µM) |  | 
0.95 (≈ 1.73 µM) | 1.19 (≈ 2.17 µM) | down-regulate CD4 expression | 2.12 | somewhat in between | 3.27 |  |  | C=C1CN(S(=O)(=O)c2ccc(C)cc2)CCCN(C(C)CC)CCCN(S(=O)(=O)c2ccc(C)cc2)C1 (centres unmarked) [QJ036] | 20.9 (≈ 38.2 µM) | > 50 |  | 
5.55 (≈ 10.4 µM) | 1.4 (≈ 2.62 µM) | down-regulate CD4 expression | 11.4 |  | > 18.7 | 17 | not active | C=C1CN(S(=O)(=O)c2ccc(C)cc2)CCCN(C(C)C)CCCN(S(=O)(=O)c2ccc(C)cc2)C1 [QJ035] | 22.2 (≈ 41.6 µM) | 23 (≈ 43.1 µM) |  | 
